In ChEMBL document CHEMBL1142227, “Structural basis for the high all-trans-retinaldehyde reductase activity of the tumor marker AKR1B10” (Proc Natl Acad Sci U S A, 2007):
pIC50: −log10 of the molar value.

Key:
[1] = biological target: Aldo-keto reductase family 1 member B1 (Homo sapiens, UniProt P15121); assay: Inhibition of glyceraldehyde reduction activity of human AKR1B1
[2] = biological target: Aldo-keto reductase family 1 member B10 (Homo sapiens, UniProt O60218); assay: Inhibition of retinaldehyde reductase activity of human AKR1B10
[3] = biological target: Aldo-keto reductase family 1 member B1 (Rattus norvegicus, UniProt P07943); assay: Inhibition of rat AKR1B4

Aldo-keto reductase family 1 member B10, sequence (O60218 whole entry): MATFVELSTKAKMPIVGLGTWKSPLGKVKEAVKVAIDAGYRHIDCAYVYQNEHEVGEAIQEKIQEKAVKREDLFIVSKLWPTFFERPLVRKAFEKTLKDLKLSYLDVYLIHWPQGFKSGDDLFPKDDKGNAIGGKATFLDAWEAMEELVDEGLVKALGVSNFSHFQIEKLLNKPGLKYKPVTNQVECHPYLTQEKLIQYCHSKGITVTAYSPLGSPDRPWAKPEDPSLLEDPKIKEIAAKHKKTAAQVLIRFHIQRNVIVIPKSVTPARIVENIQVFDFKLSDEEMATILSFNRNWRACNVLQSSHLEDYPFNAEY

| Structure (SMILES) | pIC50 [1] | pIC50 [2] | pIC50 [3] |
| --- | --- | --- | --- |
| O=CC(O)CO (racemic) | 8.00 | – | – |
| COc1ccc2c(C(=S)N(C)CC(=O)O)cccc2c1C(F)(F)F [TOLRESTAT] | – | 7.94 | 6.00 |
